Values of other authors in US10604524B2, “Pyrropyrimidine compounds as MNKs inhibitors” (LIFEARC, priority 2015, dated 2020).

Key:
[1] = test system: monocytic cell line THP-1; conditions: cited from earlier work
[2] = test system: keratinocytes; conditions: cited from earlier work

Nc1ncnc2n[nH]c(Nc3ccc(F)cc3)c12 [CGP57380]
block of release of IL-1β and IL-8 induced by Shiga toxin [1]: 73-96%
TNF-production [2]: reduced TNF-production
expression of IL-1β and IL-6 [2]: decreased expression
